In ChEMBL document CHEMBL1811912, “Human HDAC isoform selectivity achieved via exploitation of the acetate release channel with structurally unique small molecule inhibitors” (Bioorg Med Chem, 2011):

Tests used:
Histone deacetylase 1 = Histone deacetylase 1 (Homo sapiens, UniProt Q13547); assay: Inhibition of human HDAC1 using rhodamine as substrate after 1 hrs by fluorescence assay
[1] = target: T1, Protein deacetylase HDAC6 (Homo sapiens, UniProt Q9UBN7); assay: Inhibition of human HDAC6 using rhodamine as substrate after 1 hrs by fluorescence assay
T1 sequence (Q9UBN7 whole entry): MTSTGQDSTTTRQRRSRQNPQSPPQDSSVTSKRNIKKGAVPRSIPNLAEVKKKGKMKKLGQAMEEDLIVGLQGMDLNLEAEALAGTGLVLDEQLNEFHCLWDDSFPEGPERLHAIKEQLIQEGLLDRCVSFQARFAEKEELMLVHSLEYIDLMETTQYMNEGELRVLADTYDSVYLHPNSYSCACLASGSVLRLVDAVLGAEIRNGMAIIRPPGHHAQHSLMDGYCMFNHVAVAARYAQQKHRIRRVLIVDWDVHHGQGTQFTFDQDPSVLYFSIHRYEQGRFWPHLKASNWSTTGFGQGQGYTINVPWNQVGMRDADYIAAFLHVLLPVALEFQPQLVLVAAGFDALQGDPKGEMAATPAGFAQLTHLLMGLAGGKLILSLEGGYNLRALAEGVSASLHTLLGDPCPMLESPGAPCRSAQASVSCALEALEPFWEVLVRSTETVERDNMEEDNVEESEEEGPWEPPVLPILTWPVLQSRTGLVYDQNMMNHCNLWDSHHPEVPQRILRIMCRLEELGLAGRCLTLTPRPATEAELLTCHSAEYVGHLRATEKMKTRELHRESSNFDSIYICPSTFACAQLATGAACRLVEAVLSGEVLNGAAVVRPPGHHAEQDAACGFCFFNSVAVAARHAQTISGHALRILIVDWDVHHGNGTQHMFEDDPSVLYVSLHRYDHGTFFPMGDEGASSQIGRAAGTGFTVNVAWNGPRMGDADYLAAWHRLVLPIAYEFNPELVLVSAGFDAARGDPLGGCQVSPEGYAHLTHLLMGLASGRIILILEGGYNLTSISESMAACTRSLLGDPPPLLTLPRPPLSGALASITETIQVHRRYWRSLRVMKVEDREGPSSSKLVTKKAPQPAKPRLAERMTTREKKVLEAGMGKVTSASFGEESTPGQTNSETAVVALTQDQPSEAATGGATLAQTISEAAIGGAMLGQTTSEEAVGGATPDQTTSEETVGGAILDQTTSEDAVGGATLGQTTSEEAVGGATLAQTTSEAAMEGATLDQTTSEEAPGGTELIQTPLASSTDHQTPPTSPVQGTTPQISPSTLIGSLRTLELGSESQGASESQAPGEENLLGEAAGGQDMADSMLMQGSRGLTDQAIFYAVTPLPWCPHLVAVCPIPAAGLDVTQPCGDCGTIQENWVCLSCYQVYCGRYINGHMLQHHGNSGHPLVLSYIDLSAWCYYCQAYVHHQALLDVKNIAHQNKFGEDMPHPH

Histone deacetylase 2 = Histone deacetylase 2 (Homo sapiens, UniProt Q92769); assay: Inhibition of human HDAC2 using rhodamine as substrate after 1 hrs by fluorescence assay
Histone deacetylase 2, sequence (Q92769 whole entry): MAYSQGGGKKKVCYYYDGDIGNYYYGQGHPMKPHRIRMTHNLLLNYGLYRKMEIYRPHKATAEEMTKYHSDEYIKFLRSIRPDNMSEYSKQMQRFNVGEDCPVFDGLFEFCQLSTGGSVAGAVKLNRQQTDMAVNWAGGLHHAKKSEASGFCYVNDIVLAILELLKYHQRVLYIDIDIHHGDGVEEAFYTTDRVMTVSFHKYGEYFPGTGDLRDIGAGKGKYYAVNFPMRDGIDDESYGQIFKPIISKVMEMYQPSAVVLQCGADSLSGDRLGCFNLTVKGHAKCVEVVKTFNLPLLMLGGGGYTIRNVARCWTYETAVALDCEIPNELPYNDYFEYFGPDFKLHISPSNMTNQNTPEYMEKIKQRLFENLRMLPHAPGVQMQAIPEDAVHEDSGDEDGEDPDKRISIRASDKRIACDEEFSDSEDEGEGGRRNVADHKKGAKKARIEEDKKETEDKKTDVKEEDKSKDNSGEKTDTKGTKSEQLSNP

Histone deacetylase 1, sequence (Q13547 whole entry): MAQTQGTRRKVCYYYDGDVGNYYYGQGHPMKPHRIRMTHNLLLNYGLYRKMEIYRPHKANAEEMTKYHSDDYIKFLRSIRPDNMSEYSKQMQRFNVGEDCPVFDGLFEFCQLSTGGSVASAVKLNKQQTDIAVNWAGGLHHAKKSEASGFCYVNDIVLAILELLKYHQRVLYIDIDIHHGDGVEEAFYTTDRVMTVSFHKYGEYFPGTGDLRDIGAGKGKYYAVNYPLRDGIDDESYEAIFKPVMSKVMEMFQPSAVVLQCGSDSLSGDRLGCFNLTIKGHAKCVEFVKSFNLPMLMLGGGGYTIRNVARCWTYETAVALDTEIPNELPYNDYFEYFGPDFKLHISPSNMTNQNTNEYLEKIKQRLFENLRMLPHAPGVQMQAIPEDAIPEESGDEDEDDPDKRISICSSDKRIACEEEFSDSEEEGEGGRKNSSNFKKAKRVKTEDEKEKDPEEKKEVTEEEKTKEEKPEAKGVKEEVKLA

SMILES | IC50 (Histone deacetylase 1) [µM] | IC50 [1] [µM] | IC50 (Histone deacetylase 2) [µM]
N[C@H](Cc1cccc(Cl)c1)C(=O)N1CCN(C(=O)c2cc(F)ccc2F)CC1 | > 30 | > 30 | > 30
N[C@H](Cc1ccc(Cl)cc1Cl)C(=O)N1Cc2ccccc2C1 |  | > 30 | 3.9
